Source: US9512075B2 (OKAYAMA UNIVERSITY, priority 2012, dated 2016)
≈ marks a conversion by molar mass, not a printed value. Read-outs that look alike come from different tables or passages of the source.

Assays:
Assay type in all cases: cell-based
[1] = system: Staphylococcus aureus Smith strain; assay: MIC for Staphylococcus aureus Smith strain; settings: read-out: MIC Straphyrococcus aureus Smith
[2] = system: Escherichia coli BE1121 strain; assay: MIC for Escherichia coli BE1121 strain; settings: Escherichia coli, BE1121STRAIN, read-out: MIC Escherichia coli BE1121
[3] = system: Staphylococcus aureus 209P strain; assay: MIC for Staphylococcus aureus 209P strain; settings: Staphylococcus aureus, read-out: MIC Straphyrococcus aureus 209P
[4] = system: Clostridium difficile JCM1296 strain; assay: microbe, parasite or virus in culture; settings: Clostridioides difficile, JCM1296, read-out: MIC Clostridium difficile JCM1296
[5] = system: Staphylococcus aureus MRSA No. 17 (methicillin-resistant Staphylococcus aureus: MRSA); assay: MIC for Staphylococcus aureus MRSA No. 17; settings: read-out: MIC Straphyrococcus aureus MRSA No. 17 (MRSA)
[6] = system: Enterococcus faecalis NCTC12201 strain (vancomycin-resistant Enterococcus: VRE); assay: MIC for Enterococcus faecalis NCTC12201 strain (VRE); settings: read-out: MIC Enterococcus faecalis NCTC 12201 (VRE)
[7] = system: Escherichia coli K-12 strain; assay: MIC for Escherichia coli K-12 strain; settings: Escherichia coli, K12STRAIN, read-out: MIC Escherichia coli K12
[8] = system: Clostridium perfringens PB6K strain; assay: microbe, parasite or virus in culture; settings: Clostridium perfringens, PB6KSTRAIN, read-out: MIC Clostridium perfringens PB6K, PB6K strain; CD medium, 37° C. overnight, 10% CO2-containing anaerobic conditions
[9] = system: Enterococcus faecalis 5038 strain; assay: MIC for Enterococcus faecalis 5038 strain; settings: read-out: MIC Enterococcus faecalis 5038
[10] = Smith strain, regular bouillon medium, 37° C. overnight, turbidity
[11] = BE1121 strain, regular bouillon medium, 37° C. overnight, turbidity
[12] = 209P strain, regular bouillon medium, 37° C. overnight, turbidity
[13] = MRSA No. 17, regular bouillon medium, 37° C. overnight, turbidity
[14] = NCTC12201 strain (VRE), Heart Infusion Broth medium, 37° C. overnight, turbidity
[15] = K-12 strain, regular bouillon medium, 37° C. overnight, turbidity
[16] = 5038 strain, Heart Infusion Broth medium, 37° C. overnight, turbidity

## CCCCCCCCCC(=O)c1c(O)c2cc(C)ccc2oc1=O [B012, 3-decanoyl-6-methyl-4-hydroxycoumarin]
[1]; [10]
  MIC: 0.5 µg/mL (≈ 1.51 µM)
[2]; [11]
  MIC: 256 µg/mL (≈ 775 µM)
[3]; [12]
  MIC: 0.5 µg/mL (≈ 1.51 µM)
[4]
  MIC: 0.25 µg/mL (≈ 0.757 µM)
[5]; [13]
  MIC: 0.5 µg/mL (≈ 1.51 µM)
[6]; [14]
  MIC: 0.25 µg/mL (≈ 0.757 µM)
[7]; [15]
  MIC: 256 µg/mL (≈ 775 µM)
[8]
  MIC: 0.5 µg/mL (≈ 1.51 µM)
[9]; [16]
  MIC: 0.25 µg/mL (≈ 0.757 µM)

## CCCCC1CCC(C(=O)c2c(O)c3cc(F)ccc3oc2=O)CC1 (stereo not drawn) [B009, 3-(4-butylcyclohexylcarbonyl)-6-fluoro-4-hydroxycoumarin]
[1]
  MIC: 0.5 µg/mL (≈ 1.44 µM)
[2]; [11]
  MIC: 4 µg/mL (≈ 11.5 µM)
[3]; [12]
  MIC: 1 µg/mL (≈ 2.89 µM)
[4]
  MIC: 0.25 µg/mL (≈ 0.722 µM)
[5]; MRSA
  MIC: 1 µg/mL (≈ 2.89 µM)
[6]
  MIC: 0.5 µg/mL (≈ 1.44 µM)
[7]; [15]
  MIC: 256 µg/mL (≈ 739 µM)
[8]
  MIC: 1 µg/mL (≈ 2.89 µM)
[9]; 5038STRAIN
  MIC: 0.5 µg/mL (≈ 1.44 µM)

## CCCCCCCCCC(O)=C1C(=O)N(C(=O)Nc2ccc(OC)cc2)c2ccccc21 [A046, N-(4-methoxyphenylaminocarbonyl)-3-decanoyl-2-oxyindole]
[1]; [10]
  MIC: 256 µg/mL (≈ 586 µM)
[2]; [11]
  MIC: 256 µg/mL (≈ 586 µM)
[3]; [12]
  MIC: 256 µg/mL (≈ 586 µM)
[4]
  MIC: 1 µg/mL (≈ 2.29 µM)
[5]; [13]
  MIC: 256 µg/mL (≈ 586 µM)
[6]; [14]
  MIC: 256 µg/mL (≈ 586 µM)
[7]; [15]
  MIC: 256 µg/mL (≈ 586 µM)
[8]
  MIC: 8 µg/mL (≈ 18.3 µM)
[9]; [16]
  MIC: 256 µg/mL (≈ 586 µM)

## CCCCCCCCCCOCC(O)=C1C(=O)N(C(=O)Nc2ccc(Br)cc2)c2ccccc21 [A038, N-(4-bromophenylaminocarbonyl)-3-decyloxyacetyl-2-oxyindole]
[1]; [10]
  MIC: 64 µg/mL (≈ 121 µM)
[2]; [11]
  MIC: 128 µg/mL (≈ 242 µM)
[3]; [12]
  MIC: 64 µg/mL (≈ 121 µM)
[4]
  MIC: 32 µg/mL (≈ 60.4 µM)
[5]; [13]
  MIC: 64 µg/mL (≈ 121 µM)
[6]; [14]
  MIC: 16 µg/mL (≈ 30.2 µM)
[7]; [15]
  MIC: 128 µg/mL (≈ 242 µM)
[8]
  MIC: 16 µg/mL (≈ 30.2 µM)
[9]; [16]
  MIC: 8 µg/mL (≈ 15.1 µM)

## CCCCCCCCCC(=O)N1C(=O)C(=C(O)c2ccc(OC)cc2)c2ccccc21 [A062, N-decanoyl-3-(4-methoxybenzoyl)-2-oxyindole]
[1]
  MIC: 2 µg/mL (≈ 4.74 µM)
[2]; [11]
  MIC: 256 µg/mL (≈ 607 µM)
[3]; [12]
  MIC: 128 µg/mL (≈ 304 µM)
[4]
  MIC: 4 µg/mL (≈ 9.49 µM)
[5]; MRSA
  MIC: 16 µg/mL (≈ 38 µM)
[6]
  MIC: 2 µg/mL (≈ 4.74 µM)
[7]; [15]
  MIC: 256 µg/mL (≈ 607 µM)
[8]
  MIC: 8 µg/mL (≈ 19 µM)
[9]; 5038STRAIN
  MIC: 2 µg/mL (≈ 4.74 µM)

## CCCCCCCCCCOCC(=O)c1c(O)c2cc(C)ccc2oc1=O [B029, 3-decyloxyacetyl-6-methyl-4-hydroxycoumarin]
[1]; [10]
  MIC: 4 µg/mL (≈ 10.7 µM)
[2]; [11]
  MIC: 256 µg/mL (≈ 684 µM)
[3]; [12]
  MIC: 256 µg/mL (≈ 684 µM)
[4]
  MIC: < 0.125 µg/mL
[5]; [13]
  MIC: 256 µg/mL (≈ 684 µM)
[6]; [14]
  MIC: 2 µg/mL (≈ 5.34 µM)
[7]; [15]
  MIC: 256 µg/mL (≈ 684 µM)
[8]
  MIC: < 0.125 µg/mL
[9]; [16]
  MIC: 8 µg/mL (≈ 21.4 µM)

## CCCCCCCCCCOCC(=O)c1c(O)c2cc(F)ccc2oc1=O [B019, 3-decyloxyacetyl-6-fluoro-4-hydroxycoumarin]
[1]; [10]
  MIC: 256 µg/mL (≈ 676 µM)
[2]; [11]
  MIC: 256 µg/mL (≈ 676 µM)
[3]; [12]
  MIC: 256 µg/mL (≈ 676 µM)
[4]
  MIC: < 0.125 µg/mL
[5]; [13]
  MIC: 256 µg/mL (≈ 676 µM)
[6]; [14]
  MIC: 256 µg/mL (≈ 676 µM)
[7]; [15]
  MIC: 256 µg/mL (≈ 676 µM)
[8]
  MIC: < 0.125 µg/mL
[9]; [16]
  MIC: 256 µg/mL (≈ 676 µM)

## CCCCCCCCCCOC(C)C(O)=C1C(=O)N(C(=O)Nc2ccccc2)c2ccccc21 (stereo not drawn) [A021, N-(phenylaminocarbonyl)-3-(2-decyloxypropionyl)-2-oxyindole]
[1]; [10]
  MIC: 0.5 µg/mL (≈ 1.08 µM)
[2]; [11]
  MIC: 256 µg/mL (≈ 551 µM)
[3]; [12]
  MIC: 128 µg/mL (≈ 276 µM)
[4]
  MIC: 1 µg/mL (≈ 2.15 µM)
[5]; [13]
  MIC: 256 µg/mL (≈ 551 µM)
[6]; [14]
  MIC: 0.5 µg/mL (≈ 1.08 µM)
[7]; [15]
  MIC: 256 µg/mL (≈ 551 µM)
[8]
  MIC: 2 µg/mL (≈ 4.3 µM)
[9]; [16]
  MIC: 0.5 µg/mL (≈ 1.08 µM)

## CCCCCCCCCCOCC(O)=C1C(=O)N(C(=O)Nc2ccccc2)c2ccccc21 [A019, N-(phenylaminocarbonyl)-3-decyloxyacetyl-2-oxyindole]
[1]; [10]
  MIC: 4 µg/mL (≈ 8.88 µM)
[2]; [11]
  MIC: 128 µg/mL (≈ 284 µM)
[3]; [12]
  MIC: 256 µg/mL (≈ 568 µM)
[4]
  MIC: 0.5 µg/mL (≈ 1.11 µM)
[5]; [13]
  MIC: 256 µg/mL (≈ 568 µM)
[6]; [14]
  MIC: 4 µg/mL (≈ 8.88 µM)
[7]; [15]
  MIC: 256 µg/mL (≈ 568 µM)
[8]
  MIC: 2 µg/mL (≈ 4.44 µM)
[9]; [16]
  MIC: 1 µg/mL (≈ 2.22 µM)

## CCCCCCCCCCCCNC(=O)c1c(O)c2ccccc2oc1=O [B025, 3-(dodecylaminocarbonyl)-4-hydroxycoumarin]
[1]; [10]
  MIC: 2 µg/mL (≈ 5.35 µM)
[2]; [11]
  MIC: 256 µg/mL (≈ 685 µM)
[3]; [12]
  MIC: 8 µg/mL (≈ 21.4 µM)
[4]
  MIC: 4 µg/mL (≈ 10.7 µM)
[5]; [13]
  MIC: 8 µg/mL (≈ 21.4 µM)
[6]; [14]
  MIC: 1 µg/mL (≈ 2.68 µM)
[7]; [15]
  MIC: 256 µg/mL (≈ 685 µM)
[8]
  MIC: 4 µg/mL (≈ 10.7 µM)
[9]; [16]
  MIC: 2 µg/mL (≈ 5.35 µM)

## CCCCCCCCCC(O)=C1C(=O)Nc2cc(Cl)ccc21 [A002, 3-decanoyl-6-chloro-2-oxyindole]
[1]; [10]
  MIC: 16 µg/mL (≈ 49.7 µM)
[2]
  MIC: 128 µg/mL (≈ 398 µM)
[3]; 209P
  MIC: 16 µg/mL (≈ 49.7 µM)
[4]
  MIC: 32 µg/mL (≈ 99.4 µM)
[5]; [13]
  MIC: 16 µg/mL (≈ 49.7 µM)
[6]; [14]
  MIC: 15 µg/mL (≈ 46.6 µM)
[7]
  MIC: 128 µg/mL (≈ 398 µM)
[8]
  MIC: 32 µg/mL (≈ 99.4 µM)
[9]; [16]
  MIC: 16 µg/mL (≈ 49.7 µM)
